Laboratory results: paper PMC6072853 (Frontiers in Pharmacology, 2018)

How the values were obtained:
A2780 = assay: MTT antiproliferative assay, A2780; type: cell-based, human; conditions: Homo sapiens, 72 h, read-out: Growth inhibition (%) ± SEM; for inhibition at 10 µM: A2780, 10 μM; for inhibition at 30 µM: A2780, 30 μM
Text: (§1) Gynecological cancer cell lines, including ovarian (A2780), cervical (HeLa), and breast cancer cell lines (MCF7, T47D, MDA-MB-231, and MDA-MB-361) were purchased from the European Collection of Authenticated Cell Cultures (ECACC, Salisbury, United Kingdom). Additional cervical cell lines (SiHa and C33A) and a non-cancerous immortalized, mammary gland epithelial cell line (hTERT-HME1) were purchased from LGC Standards GmbH (Wesel, Germany). Non-cancerous fibroblast cells (MRC-5) were also obtained from the ECACC. All cells were cultured in minimal essential medium supplemented with 10% fetal bovine serum, 1% non-essential amino acids, and 1% antibiotic-antimycotic mixture, in humidified air containing 5% CO2 at 37°C. Immortalized hTERT-HME1 cells were maintained in serum-free mammary epithelial cell growth medium (MEGM) supplemented with insulin, human epidermal growth factor (hEGF), hydrocortisone, bovine pituitary extract, and an antibiotic-antimycotic mixture. All the medium and supplements were purchased from Lonza Group Ltd. (Basel, Switzerland).
(§2) The antiproliferative properties of the compounds were assessed by an MTT assay ([Mosmann, 1983]). Cells were seeded onto 96-well microplates at a density of 10,000 cells/well (MDA-MB-361 and C33A) or 5,000 cells/well (all other cell lines). After an overnight incubation, fresh medium containing the test compounds (at a concentration of 10 or 30 μM) was added. After incubation for 72 h at 37°C in humidified air, [3-(4,5-dimethylthiazol-2-yl)-2,5-diphenyltetrazolium bromide] (MTT) solution (5 mg/mL) was added. Purple formazan crystals were formed by the living cells during a 4 h contact period, which were assayed by spectrophotometry after having been dissolved in 100 μL DMSO. Untreated cells served as control, and cisplatin (CIS) (Ebewe Pharma GmbH, Unterach, Austria) was used as a reference compound. […] Two independent measurements were performed with five parallel wells. To present preliminary data concerning tumor selectivity of the potent compounds, the procedure was repeated on MRC-5 fibroblast and hTERT-HME1 immortalized mammary gland epithelial cells under the same experimental conditions.

MDA-MB-231 = assay: MTT antiproliferative assay, MDA-MB-231; type: cell-based, human; conditions: Homo sapiens, 72 h, read-out: Growth inhibition (%) ± SEM; for inhibition at 10 µM: MDA-MB-231, 10 μM; for inhibition at 30 µM: MDA-MB-231, 30 μM
Text: as §1, §2

MCF-7 = assay: MTT antiproliferative assay, MCF-7; type: cell-based, human; conditions: Homo sapiens, MCF7, 72 h, read-out: Growth inhibition (%) ± SEM; for inhibition at 10 µM: MCF-7, 10 μM; for inhibition at 30 µM: MCF-7, 30 μM
Text: as §1, §2

caspase-3 = assay: Caspase-3 activity colorimetric assay; type: cell-based, human; conditions: HeLa
Experimental: (§3) In order to detect, whether the test compounds induce programmed cell death, the activity of caspase-3 was determined by a colorimetric assay. To elucidate the exact pathway of apoptosis, activities of caspase-8 and caspase-9 were additionally determined by colorimetric kits. In all cases approximately 12 million cells were treated with appropriate concentrations of the compounds for 24 or 72 h. After the treatment, the cells were scraped and the enzyme activities were determined by means of colorimetric assays mentioned above. All kits were purchased from Abnova Corp. (Taipei, Taiwan) and used in accordance with the instructions of the manufacturer.

MRC-5 = assay: MTT assay, non-cancerous fibroblasts MRC-5; type: cell-based, human; conditions: Homo sapiens, MRC5, 72 h, read-out: Growth inhibition (%) ± SEM; for inhibition at 10 µM: MRC-5, 10 μM; for inhibition at 30 µM: MRC-5, 30 μM
Text: as §1, §2

MDA-MB-361 = assay: MTT antiproliferative assay, MDA-MB-361; type: cell-based, human; conditions: Homo sapiens, 72 h, read-out: Growth inhibition (%) ± SEM; for inhibition at 10 µM: MDA-MB-361, 10 μM; for inhibition at 30 µM: MDA-MB-361, 30 μM
Text: as §1, §2

caspase-9 = assay: Caspase-9 activity colorimetric assay; type: cell-based, human; conditions: HeLa
Experimental: as §3

C33A = assay: MTT antiproliferative assay, C33A; type: cell-based, human; conditions: Homo sapiens, C-33-A, 72 h, read-out: Growth inhibition (%) ± SEM
Text: as §1, §2

caspase-8 = assay: Caspase-8 activity colorimetric assay; type: cell-based, human; conditions: HeLa
Experimental: as §3

tubulin = assay: Tubulin polymerization assay (cell-free); type: biochemical; conditions: cell-free system, compared to untreated control
Experimental: In order to determine the direct action of the test compounds on the microtubular system, an in vitro tubulin polymerization assay was performed using a commercially available kit (Cytoskeleton Inc., Denver, CO, United States) in accordance with the provider’s instructions. The assay reactions were performed on a pre-warmed (37°C), UV-transparent 96-well microplate. Ten microliters of the test solutions were placed on the wells supplemented with 2 mM MgCl2, 0.5 mM ethylene glycol tetraacetic acid (EGTA), 1 mM guanosine triphosphate (GTP) and 10.2% glycerol. Ten microliters of general tubulin buffer was used as untreated control, and paclitaxel (PAC) served as the reference compound. The polymerization reaction was initiated by adding 100 μL of 3.0 mg/mL tubulin in 80 mM PIPES, pH 6.9, to each sample. Absorbance of the samples was measured per minute, at 340 nm, using a 60-min kinetic measurement protocol. Each sample was prepared in two parallels. To characterize the process, polymerization curves were fitted to the measured data. The highest difference between the absorbances measured at two consecutive time points was regarded as Vmax (Δabsorbance/min) for the tested compound. A clinically applied reference agent, PAC was used at a relatively high concentration (10 μM) as recommended by the manufacturer. […]. […]

hTERT-HME1 = assay: MTT assay, immortalized mammary gland epithelial cells hTERT-HME1; type: cell-based, human; conditions: Homo sapiens; for inhibition at 10 µM: hTERT-HME1, 10 μM; for inhibition at 10 µM / inhibition at 30 µM: 72 h, read-out: Growth inhibition (%) ± SEM; for inhibition at 30 µM: hTERT-HME1, 30 μM
Text: as §1, §2

HeLa cells = assay: Lactate dehydrogenase (LDH) cytotoxicity assay; type: cell-based, human; conditions: 24 h
Experimental: The direct cytotoxic effects of the test agents were determined by a lactate dehydrogenase (LDH) assay. Cells were seeded onto 96-well microplates at a density of 5,000 cells/well and were incubated overnight, after which the medium containing the test compounds at proper concentrations was added. After incubation for 24 h, the activity of LDH released by the treated cells was determined by a commercially available colorimetric kit according to the manufacturer’s instructions (Hoffmann-La Roche Ltd., Basel, Switzerland). Untreated cells served as control, while detergent Triton X-100 and CIS were used as reference agents.

HeLa = assay: MTT antiproliferative assay, HeLa; type: cell-based, human; conditions: Homo sapiens, 72 h; for inhibition at 10 µM / inhibition at 30 µM: read-out: Growth inhibition (%) ± SEM; for IC50: read-out: calculated IC50 value
Text: as §1, §2

Structure (SMILES)	inhibition at 10 µM (A2780) [%]	inhibition at 30 µM (A2780) [%]	inhibition at 10 µM (MDA-MB-231) [%]	inhibition at 30 µM (MDA-MB-231) [%]	inhibition at 10 µM (MCF-7) [%]	inhibition at 30 µM (MCF-7) [%]	inhibition at 10 µM (MRC-5) [%]	inhibition at 30 µM (MRC-5) [%]	inhibition at 10 µM (MDA-MB-361) [%]	inhibition at 30 µM (MDA-MB-361) [%]	inhibition at 10 µM (C33A) [%]	inhibition at 30 µM (C33A) [%]	effect on tubulin polymerization (tubulin)	inhibition at 10 µM (hTERT-HME1) [%]	inhibition at 30 µM (hTERT-HME1) [%]	inhibition at 10 µM (HeLa) [%]	inhibition at 30 µM (HeLa) [%]	IC50 (HeLa) [µM]	also measured
C[C@]12CC[C@H]3[C@@H](CCC4=CC(=O)CC[C@@H]43)[C@@H]1CC[C@@H]2O [Compound 1, 19-nortestosterone, reference compound]	< 20	< 20	< 20	21.4 ± 1.2	< 20	< 20	5.4 ± 1.2	11.3 ± 0.5	< 20	< 20	< 20	25.2 ± 1.7	significant acceleration of tubulin polymerization	16.9 ± 1.2	37.1	99.5 ± 0.2	99.5 ± 0.3	0.65	caspase-3 activity (caspase-3; 72 h): increased significantly; caspase-9 activity (caspase-9; 72 h): activated the initiator caspases; caspase-8 activity (caspase-8; 72 h): less pronounced; LDH release (HeLa cells; 1.5 μM): substantial LDH release
C[C@]12CC[C@H]3[C@@H](CCC4=CC(=O)CC[C@@H]43)[C@@H]1CC[C@H]2Cl [Compound 3]	< 20	32.7 ± 1	< 20	< 20	< 20	36.9 ± 2	4.3 ± 3.7	8 ± 2.3	< 20	21.8 ± 2.5	< 20	61.7 ± 1.7	significant acceleration of tubulin polymerization	76.2 ± 0.5	99.9 ± 0.1	95.9 ± 0.3	95.1 ± 0.5	1.21	caspase-3 activity (caspase-3; 24 h, 5.0 μM): enhanced caspase-3 activity; caspase-9 activity (caspase-9; 24 h): significantly elevated; caspase-8 activity (caspase-8; 24 h): no change; IC50 (hTERT-HME1; hTERT-HME1, 72 h, read-out: calculated IC50 value): 4.63 µM; LDH release (HeLa cells; 3.0 or 5.0 μM): significant
